Key:
Details in all cases: 72 h
[1] = system: Calu-3; assay: relative viability EC50 (midpoint between 100% and the lowest measured viability); higher = less toxic
[2] = system: Vero E6; assay: as above
[3] = system: U2OS; assay: as above
[4] = system: Caco-2; assay: as above
[5] = system: HepG2; assay: as above
[6] = system: Calu-3; assay: cell viability relative to DMSO; higher = less toxic
[7] = system: Vero E6; assay: as above
[8] = system: U2OS; assay: as above
[9] = system: Caco-2; assay: as above
[10] = system: HepG2; assay: as above
[11] = system: Calu-3; assay: drug sensitivity score (DSS) for viability; higher = more toxic; extreme values may be limits of the assay
[12] = system: Vero E6; assay: as above
[13] = system: U2OS; assay: as above
[14] = system: Caco-2; assay: as above
[15] = system: HepG2; assay: as above

Row | SMILES | relative viability EC50 [1] | relative viability EC50 [2] | relative viability EC50 [3] | relative viability EC50 [4] | relative viability EC50 [5] | cell viability ([6]; 1 nM) | cell viability ([6]; 10 nM) | cell viability ([6]; 100 nM) | cell viability ([6]; 1000 nM) | cell viability ([6]; 10000 nM) | cell viability ([7]; 1 nM) | cell viability ([7]; 10 nM) | cell viability ([7]; 100 nM) | cell viability ([7]; 1000 nM) | cell viability ([7]; 10000 nM) | cell viability ([8]; 1 nM) | cell viability ([8]; 10 nM) | cell viability ([8]; 100 nM) | cell viability ([8]; 1000 nM) | cell viability ([8]; 10000 nM) | cell viability ([9]; 1 nM) | cell viability ([9]; 10 nM) | cell viability ([9]; 100 nM) | cell viability ([9]; 1000 nM) | cell viability ([9]; 10000 nM) | cell viability ([10]; 1 nM) | cell viability ([10]; 10 nM) | cell viability ([10]; 100 nM) | cell viability ([10]; 1000 nM) | cell viability ([10]; 10000 nM) | drug sensitivity score [11] | drug sensitivity score [12] | drug sensitivity score [13] | drug sensitivity score [14] | drug sensitivity score [15]
1 | C=CC(=O)Nc1cccc(Nc2nc(Nc3ccc(Oc4ccnc(C(=O)NC)c4)cc3)ncc2F)c1 [CNX-774] | > 10 µM | 2.14 µM | 1.58 µM | 2.07 µM | 2.15 µM | 92.8% | 102% | 99.6% | 96.3% | 86.6% | 98.1% | 98.1% | 103% | 90.7% | 26.9% | 92.4% | 111% | 98.3% | 83.9% | 32.9% | 98.7% | 105% | 103% | 90.4% | 30% | 98.6% | 104% | 110% | 91.4% | 31.8% | 0.4 | 5.6 | 6.2 | 5.5 | 5.2
2 | CCCCNc1nc(N)c2[nH]c(=O)n(Cc3ccc(OCCN(C)C)nc3)c2n1 [DSR-6434] | > 10 µM | > 10 µM | > 10 µM | > 10 µM | > 10 µM | 90.4% | 104% | 95.2% | 89.6% | 101% | 97.6% | 99.1% | 98.8% | 93.6% | 96.3% | 96.9% | 97.9% | 99% | 101% | 97% | 93.3% | 98.6% | 92.7% | 100% | 95.9% | 103% | 102% | 91% | 94.4% | 97.1% | 0 | 0 | 0 | 0 | 0
3 | Cn1c(=O)c2c(ncn2CC(=O)Nc2ccc(-c3ccccc3)nn2)n(C)c1=O [ETC-159] | > 10 µM | > 10 µM | > 10 µM | > 10 µM | > 10 µM | 98.1% | 94% | 103% | 113% | 110% | 97.1% | 97.8% | 93.7% | 89.4% | 94.7% | 95.1% | 96.7% | 93.4% | 99.2% | 98.5% | 91.7% | 91.3% | 98.3% | 93.5% | 79.9% | 94% | 89.4% | 106% | 87.4% | 79.2% | 0 | 0 | 0 | 0.5 | 1.9
4 | O=C(N[C@H]1CN2CCC1CC2)c1cc2cccc(Cl)c2s1 [EVP-6124] | > 10 µM | > 10 µM | > 10 µM | > 10 µM | > 10 µM | 87.9% | 92% | 89.1% | 98.5% | 85.1% | 95.6% | 92.2% | 97.8% | 96% | 92.9% | 104% | 100% | 95% | 103% | 95.2% | 94.6% | 97.5% | 98.2% | 101% | 92.9% | 90.6% | 95% | 106% | 92.7% | 94.7% | 0 | 0 | 0 | 0 | 0
5 | O=C(O)CCc1ccc(NCc2cccc(Oc3ccccc3)c2)cc1 [GW-9508] | > 10 µM | > 10 µM | > 10 µM | > 10 µM | > 10 µM | 90.9% | 100% | 107% | 106% | 104% | 94.1% | 96.1% | 97.8% | 95.2% | 101% | 91.9% | 97% | 98.6% | 102% | 97.6% | 95.4% | 98.4% | 102% | 112% | 106% | 97.1% | 101% | 96.9% | 99.8% | 96% | 0 | 0 | 0 | 0 | 0
6 | CN1CCC[C@@H]1Cc1c[nH]c2ccc(CCS(=O)(=O)c3ccccc3)cc12 [eletriptan] | > 10 µM |  | > 10 µM | > 10 µM | > 10 µM | 88.5% | 102% | 97.8% | 95.2% | 87.3% |  |  |  |  |  | 98.6% | 104% | 94.6% | 104% | 96.3% | 96.5% | 98% | 104% | 105% | 96.1% | 103% | 99.6% | 96.7% | 95.6% | 97% | 0.1 |  | 0 | 0 | 0
7 | C#C[C@]1(O)CC[C@H]2[C@@H]3CCc4cc(OC)ccc4[C@H]3CC[C@@]21C [mestranol] | > 10 µM |  | > 10 µM | > 10 µM | > 10 µM | 89.6% | 102% | 108% | 104% | 103% |  |  |  |  |  | 102% | 98.6% | 96.7% | 101% | 96.1% | 96.8% | 106% | 102% | 100% | 82.7% | 113% | 104% | 107% | 103% | 97.5% | 0 |  | 0 | 0.4 | 0
8 | Cn1c(=O)c2[nH]c(Br)nc2n(C)c1=O [pamabrom] | > 10 µM |  | > 10 µM | > 10 µM | > 10 µM | 105% | 99.3% | 100% | 103% | 105% |  |  |  |  |  | 98.6% | 99.8% | 97.9% | 102% | 96.4% | 90.3% | 103% | 91% | 109% | 101% | 100% | 94.8% | 92.9% | 89.7% | 112% | 0 |  | 0 | 0 | 0

Source: the supplement of paper PMC13380429
